According to EP0605432B1, “INDUCTION OF CYTOLYTIC T-L[…] CYTOMEGALOVIRUS POLYPEPTIDES” (CITY OF HOPE, priority 1992, dated 2001):

System: HCMV infected cells
Assay: CTL analysis of HPLC purified pp65-CNBr digest peptides
Format: cell-based, human
Settings: identification method: by experiment
Protocol: For chemical cleavage with CNBr, pp65 was dissolved in 60% formic acid and treated overnight under argon with a 100 fold molar excess of CNBr (over methionine residues). The solvent was evaporated at room temperature under a stream of argon, the residue resuspended in water and lyophilized. The peptides were fractionated by HPLC on a Vydac C4 reverse phase column, using a 90-minute linear gradient from 100% solvent A (0.1% TFA) to 100% solvent B (TFA/H2O/CH3CN, 0.1/9.9/90, v/v/v/). The HPLC purified peaks from map A were subjected to amino acid sequencing (performed by City of Hope) and from map B were used for CTL analysis (performed at the Fred Hutchinson Cancer Center).
Figure 4 is a map produced by the HPLC analysis. The HPLC purified peptide peaks designated by asterisks in Figure 4 were sequenced. These peptides correspond to sequences 1 through 6 (Sequence ID Nos. 1-6), of this application. The invention includes the use of these six peptides or portions thereof to lyse HCMV infected cells, and as immunogens in HCMV vaccines and skin test formulations.

| Substance | induction of CTLs that lyse HCMV infected cells |
| --- | --- |
| SEQ ID NO:1: Fragment of pp65 protein expressed by HCMV (Towne), 98 amino acid residues, amino acid 12-109 | Induces CTLs that lyse HCMV infected cells |
| SEQ ID NO:6: C-terminal fragment of HCMV pp65 protein, 62 amino acid residues, amino acid 500-561 | Induces CTLs that lyse HCMV infected cells |
